Laboratory results published in PubChem BioAssay AID248 (DTP/NCI, 2004).
Several values for one entry are separate records, joined by “and”; a condition that tells them apart may be missing. Identical values can stand only once. Toxic doses and inconclusive results are not listed. No stated cut-off is given here; in the data, active means T/C of 150% or more; inactive means T/C below 125%.

Test system: L1210 leukemia ip in BDF1 mice, survival T/C
Experiment: NCI In Vivo Anticancer Drug Screen. Data for tumor model L1210 Leukemia (intraperitoneal) in B6D2F1 (BDF1) mice
Details: endpoint: mean survival time, higher = longer survival
In short: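 Read-out is survival time, reported as the treated-group measurement over the vehicle-control measurement.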

[1] = dose: 100.0 mg/kg/injection, schedule: Q01DX009 (ip), vehicle: Klucel (hydroxypropylcellulose) (HPC)
[2] = dose: 200.0 mg/kg/injection, schedule: Q01DX009 (ip), vehicle: Klucel (hydroxypropylcellulose) (HPC)
[3] = dose: 400.0 mg/kg/injection, schedule: Q01DX009 (ip), vehicle: Klucel (hydroxypropylcellulose) (HPC)
[4] = dose: 100.0 mg/kg/injection, schedule: Q01DX001 (ip), vehicle: carboxymethylcellulose (CMC)
[5] = dose: 200.0 mg/kg/injection, schedule: Q01DX001 (ip), vehicle: carboxymethylcellulose (CMC)
[6] = dose: 400.0 mg/kg/injection, schedule: Q01DX001 (ip), vehicle: carboxymethylcellulose (CMC)
[7] = dose: 100.0 mg/kg/injection, schedule: Q04DX003 (ip), vehicle: Klucel (hydroxypropylcellulose) (HPC)
[8] = dose: 200.0 mg/kg/injection, schedule: Q04DX003 (ip), vehicle: Klucel (hydroxypropylcellulose) (HPC)
[9] = dose: 400.0 mg/kg/injection, schedule: Q04DX003 (ip), vehicle: Klucel (hydroxypropylcellulose) (HPC)
[10] = dose: 100.0 mg/kg/injection, schedule: Q04DX003 (ip), vehicle: saline
[11] = dose: 200.0 mg/kg/injection, schedule: Q04DX003 (ip), vehicle: saline
[12] = dose: 400.0 mg/kg/injection, schedule: Q04DX003 (ip), vehicle: saline
[13] = dose: 100.0 mg/kg/injection, schedule: Q01DX009 (ip), vehicle: saline

Measured: T/C

C1COC(N2CC3CCC(CC3)C2)=N1
inactive: dose: 75.0 mg/kg/injection, schedule: Q01DX001 (ip), vehicle: saline 96 % of control | dose: 150.0 mg/kg/injection, schedule: Q01DX001 (ip), vehicle: saline 105 % of control

Cc1ccc(Oc2ccc3cc[n+](C)cc3c2)cc1
inactive: dose: 6.25 mg/kg/injection, schedule: Q04DX002 (ip), vehicle: DMSO 94 % of control | dose: 12.5 mg/kg/injection, schedule: Q04DX002 (ip), vehicle: DMSO 105 % of control | dose: 25.0 mg/kg/injection, schedule: Q04DX002 (ip), vehicle: DMSO 102 % of control

Cc1cc(C)c(C#N)c(=O)[nH]1
inactive: [1] 97 % of control | dose: 100.0 mg/kg/injection, schedule: Q04DX002 (ip), vehicle: Klucel (hydroxypropylcellulose) (HPC) 100 % of control | [2] 97 % of control | dose: 200.0 mg/kg/injection, schedule: Q04DX002 (ip), vehicle: Klucel (hydroxypropylcellulose) (HPC) 92 % of control | [3] 88 % of control | dose: 400.0 mg/kg/injection, schedule: Q04DX002 (ip), vehicle: Klucel (hydroxypropylcellulose) (HPC) 95 % of control

c1ccc(P(N2CCOCC2)N2CCOCC2)cc1
inactive: dose: 100.0 mg/kg/injection, schedule: Q04DX002 (ip), vehicle: saline with Tween-80 93 % of control | dose: 200.0 mg/kg/injection, schedule: Q04DX002 (ip), vehicle: saline with Tween-80 97 % of control | dose: 400.0 mg/kg/injection, schedule: Q04DX002 (ip), vehicle: saline with Tween-80 97 % of control

O=c1c(O)c(O)c1=O
inactive: dose: 75.0 mg/kg/injection, schedule: Q01DX001 (ip), vehicle: carboxymethylcellulose (CMC) 89 % of control | dose: 150.0 mg/kg/injection, schedule: Q01DX001 (ip), vehicle: carboxymethylcellulose (CMC) 98 % of control

COc1ccc(-c2ccc(OC)c(OC)c2)cc1OC
inactive: [4] 110 % of control | [5] 104 % of control | [6] 110 % of control

CC(=O)OCC1OC(n2cnc3c(C)nc(F)nc32)C(OC(C)=O)C1OC(C)=O (stereo not drawn)
inactive: dose: 50.0 mg/kg/injection, schedule: Q01DX001 (ip), vehicle: other 105 % of control | dose: 100.0 mg/kg/injection, schedule: Q01DX001 (ip), vehicle: other 113 % of control | dose: 200.0 mg/kg/injection, schedule: Q01DX001 (ip), vehicle: other 103 % of control | dose: 400.0 mg/kg/injection, schedule: Q01DX001 (ip), vehicle: other 108 % of control

CCCCCCCCCCCCn1c(C)nc2ccccc21
inactive: dose: 2.4 mg/kg/injection, schedule: Q03HX024 (ip), vehicle: saline 94 % of control | dose: 3.6 mg/kg/injection, schedule: Q03HX024 (ip), vehicle: saline 91 % of control | dose: 5.0 mg/kg/injection, schedule: Q01DX001 (ip), vehicle: saline 104 % of control | dose: 5.0 mg/kg/injection, schedule: Q04DX003 (ip), vehicle: carboxymethylcellulose (CMC) 105 % of control | dose: 5.4 mg/kg/injection, schedule: Q03HX024 (ip), vehicle: saline 97 % of control | dose: 8.0 mg/kg/injection, schedule: Q03HX024 (ip), vehicle: saline 96 % of control | dose: 10.0 mg/kg/injection, schedule: Q01DX001 (ip), vehicle: saline 101 % of control | dose: 10.0 mg/kg/injection, schedule: Q04DX003 (ip), vehicle: carboxymethylcellulose (CMC) 106 % of control | dose: 12.0 mg/kg/injection, schedule: Q01DX009 (ip), vehicle: saline 116 % of control | dose: 12.0 mg/kg/injection, schedule: Q03HX024 (ip), vehicle: saline 104 % of control | dose: 18.0 mg/kg/injection, schedule: Q01DX009 (ip), vehicle: saline 118 % of control | dose: 20.0 mg/kg/injection, schedule: Q01DX001 (ip), vehicle: saline 104 % of control | dose: 20.0 mg/kg/injection, schedule: Q04DX003 (ip), vehicle: carboxymethylcellulose (CMC) 108 % of control | dose: 24.0 mg/kg/injection, schedule: Q01DX001 (ip), vehicle: saline 106 % of control | dose: 24.0 mg/kg/injection, schedule: Q04DX003 (ip), vehicle: saline 113 % of control | dose: 27.0 mg/kg/injection, schedule: Q01DX009 (ip), vehicle: saline 113 % of control | dose: 36.0 mg/kg/injection, schedule: Q01DX001 (ip), vehicle: saline 105 % of control | dose: 36.0 mg/kg/injection, schedule: Q04DX003 (ip), vehicle: saline 104 % of control | dose: 40.0 mg/kg/injection, schedule: Q01DX001 (ip), vehicle: saline 112 % of control

CC1c2cccc(Cl)c2C(=O)c2c(Cl)cccc21
inactive: [1] 102 % of control | [7] 108 % of control | [2] 102 % of control | [8] 102 % of control | [3] 110 % of control | [9] 96 % of control

NC(=O)C1(O)C(Cl)(Cl)CCCC1(Cl)Cl
inactive: dose: 50.0 mg/kg/injection, schedule: Q01DX009 (ip), vehicle: saline with Tween-80 102 % of control | dose: 100.0 mg/kg/injection, schedule: Q01DX009 (ip), vehicle: saline with Tween-80 91 % of control | dose: 200.0 mg/kg/injection, schedule: Q01DX009 (ip), vehicle: saline with Tween-80 106 % of control

CC1CCCC/C1=N/NC(N)=O (stereo not drawn)
inactive: [1] 97 % of control | [10] 97 % of control | [11] 88 % of control | [12] 95 % of control

Clc1cccc(C2ON2C2CCCCC2)c1 (stereo not drawn)
inactive: [4] 92 % of control | [5] 100 % of control | [6] 94 % of control

O=c1cc(NCc2ccc(Cl)cc2)[nH]c(=O)[nH]1
inactive: dose: 100.0 mg/kg/injection, schedule: Q01DX001 (ip), vehicle: saline with Tween-80 108 % of control | dose: 200.0 mg/kg/injection, schedule: Q01DX001 (ip), vehicle: saline with Tween-80 95 % of control | dose: 400.0 mg/kg/injection, schedule: Q01DX001 (ip), vehicle: saline with Tween-80 98 % of control

c1ccc2c[s+]ccc2c1
inactive: dose: 100.0 mg/kg/injection, schedule: Q04DX002 (ip), vehicle: saline 90 % of control | dose: 200.0 mg/kg/injection, schedule: Q04DX002 (ip), vehicle: saline 94 % of control | dose: 400.0 mg/kg/injection, schedule: Q04DX002 (ip), vehicle: saline 103 % of control

Cc1nc2ccc(NC(=O)c3ccccc3)cc2o1
inactive: [7] 105 % of control | [8] 105 % of control | [9] 100 % of control

O=C(CSc1cc(Cl)ccc1Cl)Nc1cccc(Br)c1
inactive: dose: 50.0 mg/kg/injection, schedule: Q04DX003 (ip), vehicle: other 86 % of control | dose: 100.0 mg/kg/injection, schedule: Q04DX003 (ip), vehicle: other 90 % of control and 92 % of control | dose: 200.0 mg/kg/injection, schedule: Q04DX003 (ip), vehicle: other 89 % of control | dose: 400.0 mg/kg/injection, schedule: Q04DX003 (ip), vehicle: other 87 % of control

CCCCCCCCOC(=O)Nc1ccc(S(=O)(=O)N(C)C)cc1
inactive: [4] 98 % of control | [5] 97 % of control | [6] 89 % of control

CC1(C)N=C(N)N=C(N)N1c1ccc(C(=O)Nc2ccc(S(=O)(=O)F)cc2)cc1
inactive: dose: 0.8 mg/kg/injection, schedule: Q01DX009 (ip), vehicle: saline 101 % of control | dose: 4.0 mg/kg/injection, schedule: Q01DX009 (ip), vehicle: saline 100 % of control | dose: 20.0 mg/kg/injection, schedule: Q01DX009 (ip), vehicle: saline 95 % of control | [13] 97 % of control | dose: 500.0 mg/kg/injection, schedule: Q01DX009 (ip), vehicle: saline 101 % of control

CN(C)CNC=O
inactive: dose: 25.0 mg/kg/injection, schedule: Q01DX009 (ip), vehicle: saline 86 % of control | dose: 50.0 mg/kg/injection, schedule: Q01DX009 (ip), vehicle: saline 96 % of control | [13] 96 % of control and 99 % of control | [10] 103 % of control | [11] 106 % of control | [12] 97 % of control

CSc1nc(N)nc2c1nc(SC)n2C1OC(CO)C(O)C1O (stereo not drawn)
inactive: dose: 100.0 mg/kg/injection, schedule: Q01DX005 (ip), vehicle: saline 102 % of control | dose: 200.0 mg/kg/injection, schedule: Q01DX005 (ip), vehicle: saline 94 % of control

O=C(CCCl)N1CCN(C(=O)CCCl)c2ccccc21
inactive: [4] 103 % of control | [5] 96 % of control | [6] 96 % of control

O=C1CCOc2ccc(Cl)cc21
inactive: [1] 95 % of control | [2] 101 % of control | [3] 106 % of control
